Data published in ChEMBL document CHEMBL1201862, “PubChem BioAssay data set” (2004).
Activity calls are given as the source filed them.

What was measured:
Cytochrome P450 2D6 = Cytochrome P450 2D6 (Homo sapiens, UniProt P10635);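 also: CYP2D6 member of a cytochrome P450 panel assay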
Cannabinoid receptor 2 [1] = target: T1, Cannabinoid receptor 2 (Homo sapiens, UniProt P34972); assay: SAR analysis of antagonists of the Cannabinoid Receptor 2 using an Image-Based Assay - Set 2. [Related pubchem assays (depositor defined):AID1961, AID1965]; format: functional
T1 sequence (P34972 whole entry): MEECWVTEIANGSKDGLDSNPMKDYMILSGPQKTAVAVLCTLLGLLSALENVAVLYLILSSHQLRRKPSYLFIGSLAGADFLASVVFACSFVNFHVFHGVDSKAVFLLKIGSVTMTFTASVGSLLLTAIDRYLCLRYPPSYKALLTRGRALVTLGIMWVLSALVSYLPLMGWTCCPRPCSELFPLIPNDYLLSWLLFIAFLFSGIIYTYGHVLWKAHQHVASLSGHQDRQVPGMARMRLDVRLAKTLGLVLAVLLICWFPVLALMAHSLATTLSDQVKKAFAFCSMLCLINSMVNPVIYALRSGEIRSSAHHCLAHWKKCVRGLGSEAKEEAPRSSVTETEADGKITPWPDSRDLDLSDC

Cannabinoid receptor 2 [2] = target: T1, Cannabinoid receptor 2; assay: SAR analysis of agonists of the Cannabinoid Receptor 2 using an Image-Based Assay - Set 2. [Related pubchem assays (depositor defined):AID1961, AID1965]; format: functional
[3] = target: G-protein coupled receptor 55 (Homo sapiens, UniProt Q9Y2T6); assay: SAR analysis of selective Agonists of GPR55 using an Image-Based Assay. [Related pubchem assays (depositor defined):AID1961, AID1965]; format: functional
Cannabinoid receptor 1 = Cannabinoid receptor 1 (Homo sapiens, UniProt P21554); assay: SAR analysis of antagonists of the Cannabinoid Receptor 1 using an Image-Based Assay. [Related pubchem assays (depositor defined):AID1961, AID1965]; format: functional
[4] = target: T2, Delta-type opioid receptor (Homo sapiens, UniProt P41143); assay: HTS Image-Based Screen for Antagonists of the DOR Receptor. [Related pubchem assays (depositor defined):AID1777, AID1785, AID1786, AID2133]; format: functional
T2 sequence (P41143 whole entry): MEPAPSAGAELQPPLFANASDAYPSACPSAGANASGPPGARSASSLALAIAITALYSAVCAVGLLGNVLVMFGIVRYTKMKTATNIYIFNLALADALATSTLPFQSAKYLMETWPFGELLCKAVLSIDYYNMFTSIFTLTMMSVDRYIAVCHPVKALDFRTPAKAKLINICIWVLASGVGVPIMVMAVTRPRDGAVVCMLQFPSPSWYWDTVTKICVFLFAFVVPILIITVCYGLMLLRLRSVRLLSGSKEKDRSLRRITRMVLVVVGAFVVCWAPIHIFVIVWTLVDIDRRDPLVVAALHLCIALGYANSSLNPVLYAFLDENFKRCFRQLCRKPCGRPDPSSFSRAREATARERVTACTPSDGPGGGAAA

Mu-type opioid receptor = Mu-type opioid receptor (Homo sapiens, UniProt P35372); assay: HTS Image-Based Screen for Agonists of the MOR Receptor. [Related pubchem assays (depositor defined):AID1777, AID1785, AID1786, AID2133]; format: functional;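 also: imaging of beta-arrestin GFP recruitment into spots after receptor activation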
Chain of Mu-type opioid receptor (P35372 whole entry): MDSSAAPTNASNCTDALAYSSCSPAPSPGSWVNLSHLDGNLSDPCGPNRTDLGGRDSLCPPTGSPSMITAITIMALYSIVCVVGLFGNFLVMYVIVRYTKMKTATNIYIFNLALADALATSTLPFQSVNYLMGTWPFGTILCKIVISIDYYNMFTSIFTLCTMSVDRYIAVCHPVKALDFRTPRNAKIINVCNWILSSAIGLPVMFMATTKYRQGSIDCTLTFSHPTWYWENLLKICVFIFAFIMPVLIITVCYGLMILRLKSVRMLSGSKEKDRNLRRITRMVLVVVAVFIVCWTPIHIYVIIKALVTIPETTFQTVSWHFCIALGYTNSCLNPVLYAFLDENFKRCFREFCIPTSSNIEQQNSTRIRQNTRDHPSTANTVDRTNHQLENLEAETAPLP

[5] = test system: Streptococcus sp. 'group A'; assay: Streptococcus pyogenes SK(-)GAS viability under kanamycin – luminescence, BacTiterGlo, confirmation, counter-screen for streptokinase expression inhibitor project, dose response (AID 1900); format: functional, organism-based
[6] = target: T2, Delta-type opioid receptor; assay: HTS Image-Based Screen for Agonists of the DOR Receptor. [Related pubchem assays (depositor defined):AID1777, AID1786, AID2133]; format: functional
[7] = Trypanosoma cruzi growth suppression in host cells – NIH3T3 host cells, beta-gal luminescence, confirmation (AID 2044); format: functional, cell-based;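 also: intracellular parasites grown in NIH/3T3 mouse fibroblasts as host cells; luminescent beta-galactosidase reporter signal from transgenic T. cruzi replicating inside host cells; inhibitors lower the luminescence signal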
[8] = target: T3, Kappa-type opioid receptor (Homo sapiens, UniProt P41145); format: functional
T3 sequence (P41145 whole entry): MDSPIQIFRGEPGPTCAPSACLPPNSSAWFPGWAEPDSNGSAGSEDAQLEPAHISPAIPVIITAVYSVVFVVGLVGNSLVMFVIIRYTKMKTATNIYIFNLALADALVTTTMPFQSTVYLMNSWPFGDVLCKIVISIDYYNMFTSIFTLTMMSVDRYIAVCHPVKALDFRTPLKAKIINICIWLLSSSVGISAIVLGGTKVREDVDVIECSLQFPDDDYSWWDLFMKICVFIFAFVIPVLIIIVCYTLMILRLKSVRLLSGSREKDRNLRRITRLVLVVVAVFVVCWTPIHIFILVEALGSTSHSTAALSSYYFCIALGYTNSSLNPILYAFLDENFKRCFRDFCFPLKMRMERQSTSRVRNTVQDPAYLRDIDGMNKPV

[9] = NIH3T3 cell viability loss – ATP luminescence, mouse fibroblasts, counter-screen, dose response (AID 2010); format: functional, cell-based;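 also: cells exposed to compound for about 90 hours before reading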
Beta-galactosidase = Beta-galactosidase (Escherichia coli, UniProt Q8VNN2); format: functional
[10] = target: T3, Kappa-type opioid receptor; format: functional; remark: listed apart in the source
Streptococcus = assay: GAS UMAA2166 growth inhibition – luminescence, BacTiterGlo, counter-screen for streptokinase expression inhibitor project, dose response (AID 1915); format: functional, organism-based;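 also: potency for reduction of bacterial viability or growth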
Vero [11] = assay: cells; format: functional, cell-based; settings: Chlorocebus sabaeus
H9c2 = assay: cells; format: functional, cell-based; settings: Rattus norvegicus, H9c2, Myocardium;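 also: confirmatory concentration-response retest of ultra-high-throughput screening hits for modulation of myocardial damage; cell death induced by hydrogen peroxide oxidative stress; compound pretreatment for 60 min then peroxide exposure for 2 h; potency is for protecting the cells against peroxide damage rather than for killing them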
Vero [12] = assay: cells; format: functional; settings: Chlorocebus sabaeus
[13] = target: Nucleotide-binding oligomerization domain-containing protein 1 (Homo sapiens, UniProt Q9Y239); assay: SAR analysis of compounds that inhibit NOD1 - Set 3. [Related pubchem assays (depositor defined):AID1566, AID1575, AID1578, AID1849, AID1852, AID2333, AID2335, AID2466]; format: functional
Tumor necrosis factor = Tumor necrosis factor (Homo sapiens, UniProt P01375); assay: analog potency on TNFa NF-kB signaling – cell-based, set 3, SAR follow-up (AID 2801); format: functional
HEK293 = assay: SAR analysis of compounds that are cytotoxic to HEK293 - Set 3. [Related pubchem assays (depositor defined):AID1575, AID1578, AID1848, AID1849, AID2001, AID2333, AID2334, AID2335, AID2337, AID2469]; format: functional, cell-based; settings: Homo sapiens
[14] = target: Nucleotide-binding oligomerization domain-containing protein 2 (Homo sapiens, UniProt Q9HC29); assay: inhibition of MDP-driven NOD2 NF-kB reporter – cell-based, set 3, SAR follow-up (AID 2799); format: functional
[15] = target: T4, Serine/threonine-protein phosphatase (Candida dubliniensis (strain CD36 / CBS 7987 / NCPF 3949 / NRRLY-17841) (Yeast), UniProt B9W6M3); assay: Fluorescence Cell-Based Secondary Assay to Identify Inhibitors of Calcineurin. [Related pubchem assays (depositor defined):AID1979, AID2007]; format: functional
T4 sequence (B9W6M3 whole entry): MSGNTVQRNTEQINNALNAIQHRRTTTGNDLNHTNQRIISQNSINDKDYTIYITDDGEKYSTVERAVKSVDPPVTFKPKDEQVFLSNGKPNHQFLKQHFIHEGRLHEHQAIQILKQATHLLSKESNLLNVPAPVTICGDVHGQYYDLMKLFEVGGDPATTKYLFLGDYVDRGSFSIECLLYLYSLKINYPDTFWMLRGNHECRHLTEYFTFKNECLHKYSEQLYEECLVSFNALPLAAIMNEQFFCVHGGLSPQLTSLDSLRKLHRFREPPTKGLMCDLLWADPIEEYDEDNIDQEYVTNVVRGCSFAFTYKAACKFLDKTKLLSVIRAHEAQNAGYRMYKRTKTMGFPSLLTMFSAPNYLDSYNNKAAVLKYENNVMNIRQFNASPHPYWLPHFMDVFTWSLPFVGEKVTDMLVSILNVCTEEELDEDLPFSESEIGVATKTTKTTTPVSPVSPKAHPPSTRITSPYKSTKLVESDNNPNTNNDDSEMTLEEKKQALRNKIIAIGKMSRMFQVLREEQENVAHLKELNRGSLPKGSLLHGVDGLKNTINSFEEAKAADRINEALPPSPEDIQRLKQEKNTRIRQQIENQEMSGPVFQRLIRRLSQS

[16] = target: T5, Dual specificity protein phosphatase 3 (Homo sapiens, UniProt P51452); assay: VHR1 phosphatase inhibitors, primary screen, biochemical, absorbance, uHTS (AID 1654)
T5 sequence (P51452 whole entry): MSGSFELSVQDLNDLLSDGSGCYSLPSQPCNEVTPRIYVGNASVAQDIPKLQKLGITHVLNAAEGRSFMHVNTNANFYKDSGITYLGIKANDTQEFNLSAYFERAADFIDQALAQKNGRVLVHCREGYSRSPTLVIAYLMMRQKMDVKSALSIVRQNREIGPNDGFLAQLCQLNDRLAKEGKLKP

[17] = target: T6, Voltage-gated N-type calcium channel alpha-1B subunit/Amyloid beta A4 precursor protein-binding family A member 1 (Homo sapiens, UniProt Q00975+Q02410); format: protein assay
T6 sequence (Q00975 whole entry): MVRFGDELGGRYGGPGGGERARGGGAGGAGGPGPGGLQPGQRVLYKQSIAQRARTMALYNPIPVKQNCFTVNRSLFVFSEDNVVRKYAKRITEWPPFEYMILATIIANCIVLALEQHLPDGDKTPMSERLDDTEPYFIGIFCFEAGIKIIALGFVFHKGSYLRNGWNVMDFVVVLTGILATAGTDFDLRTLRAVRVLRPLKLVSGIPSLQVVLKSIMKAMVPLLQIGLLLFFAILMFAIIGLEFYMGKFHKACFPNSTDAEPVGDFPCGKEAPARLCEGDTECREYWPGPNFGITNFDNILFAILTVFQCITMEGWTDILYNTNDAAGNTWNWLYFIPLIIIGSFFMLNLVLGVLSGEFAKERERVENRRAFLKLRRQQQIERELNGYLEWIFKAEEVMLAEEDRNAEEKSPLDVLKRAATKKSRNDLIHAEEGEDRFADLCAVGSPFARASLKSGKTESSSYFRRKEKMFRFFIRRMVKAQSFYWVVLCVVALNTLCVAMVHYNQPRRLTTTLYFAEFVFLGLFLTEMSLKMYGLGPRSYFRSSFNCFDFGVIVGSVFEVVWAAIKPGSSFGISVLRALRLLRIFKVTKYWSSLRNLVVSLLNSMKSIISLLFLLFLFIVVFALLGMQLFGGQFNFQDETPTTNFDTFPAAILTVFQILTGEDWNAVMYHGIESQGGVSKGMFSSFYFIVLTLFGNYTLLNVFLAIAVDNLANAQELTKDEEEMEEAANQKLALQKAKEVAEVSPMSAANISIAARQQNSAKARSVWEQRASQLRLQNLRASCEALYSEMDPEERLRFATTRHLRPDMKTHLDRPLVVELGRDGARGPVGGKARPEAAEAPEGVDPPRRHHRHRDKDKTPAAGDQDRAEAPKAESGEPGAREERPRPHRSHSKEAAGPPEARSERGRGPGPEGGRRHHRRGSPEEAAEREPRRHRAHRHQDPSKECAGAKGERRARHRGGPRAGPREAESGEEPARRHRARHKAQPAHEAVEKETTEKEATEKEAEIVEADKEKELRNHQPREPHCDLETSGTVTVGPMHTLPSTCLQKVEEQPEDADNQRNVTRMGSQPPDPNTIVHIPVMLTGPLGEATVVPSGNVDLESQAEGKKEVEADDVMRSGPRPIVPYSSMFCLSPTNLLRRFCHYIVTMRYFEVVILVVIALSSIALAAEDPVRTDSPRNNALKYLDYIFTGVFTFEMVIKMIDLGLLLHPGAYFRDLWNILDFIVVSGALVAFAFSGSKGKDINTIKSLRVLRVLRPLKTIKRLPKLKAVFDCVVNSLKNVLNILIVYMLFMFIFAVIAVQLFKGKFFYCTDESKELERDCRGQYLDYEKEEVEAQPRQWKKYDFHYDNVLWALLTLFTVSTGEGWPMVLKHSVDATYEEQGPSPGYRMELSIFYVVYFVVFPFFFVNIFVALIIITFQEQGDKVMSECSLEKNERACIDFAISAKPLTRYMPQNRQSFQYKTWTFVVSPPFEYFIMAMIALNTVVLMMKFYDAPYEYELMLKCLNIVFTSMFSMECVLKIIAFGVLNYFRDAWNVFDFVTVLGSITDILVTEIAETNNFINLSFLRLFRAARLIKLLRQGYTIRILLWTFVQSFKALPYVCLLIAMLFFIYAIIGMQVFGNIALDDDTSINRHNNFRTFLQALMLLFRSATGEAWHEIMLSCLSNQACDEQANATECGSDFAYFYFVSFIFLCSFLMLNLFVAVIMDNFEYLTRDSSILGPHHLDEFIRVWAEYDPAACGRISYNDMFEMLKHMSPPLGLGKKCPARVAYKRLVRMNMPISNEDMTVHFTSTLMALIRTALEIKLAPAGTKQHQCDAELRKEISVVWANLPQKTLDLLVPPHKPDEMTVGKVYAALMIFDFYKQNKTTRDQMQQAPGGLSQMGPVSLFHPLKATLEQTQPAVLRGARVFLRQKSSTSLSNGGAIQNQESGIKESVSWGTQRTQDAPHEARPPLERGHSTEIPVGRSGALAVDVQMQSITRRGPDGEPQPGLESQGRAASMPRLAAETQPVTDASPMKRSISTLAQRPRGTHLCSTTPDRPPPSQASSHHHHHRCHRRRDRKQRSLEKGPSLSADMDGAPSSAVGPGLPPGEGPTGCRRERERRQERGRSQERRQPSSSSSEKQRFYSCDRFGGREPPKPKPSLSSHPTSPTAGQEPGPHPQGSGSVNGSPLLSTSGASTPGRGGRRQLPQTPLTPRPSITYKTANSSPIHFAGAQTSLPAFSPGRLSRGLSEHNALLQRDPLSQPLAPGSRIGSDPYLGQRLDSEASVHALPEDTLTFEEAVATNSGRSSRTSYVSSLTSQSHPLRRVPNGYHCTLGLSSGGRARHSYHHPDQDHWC
T6 sequence (Q02410 whole entry): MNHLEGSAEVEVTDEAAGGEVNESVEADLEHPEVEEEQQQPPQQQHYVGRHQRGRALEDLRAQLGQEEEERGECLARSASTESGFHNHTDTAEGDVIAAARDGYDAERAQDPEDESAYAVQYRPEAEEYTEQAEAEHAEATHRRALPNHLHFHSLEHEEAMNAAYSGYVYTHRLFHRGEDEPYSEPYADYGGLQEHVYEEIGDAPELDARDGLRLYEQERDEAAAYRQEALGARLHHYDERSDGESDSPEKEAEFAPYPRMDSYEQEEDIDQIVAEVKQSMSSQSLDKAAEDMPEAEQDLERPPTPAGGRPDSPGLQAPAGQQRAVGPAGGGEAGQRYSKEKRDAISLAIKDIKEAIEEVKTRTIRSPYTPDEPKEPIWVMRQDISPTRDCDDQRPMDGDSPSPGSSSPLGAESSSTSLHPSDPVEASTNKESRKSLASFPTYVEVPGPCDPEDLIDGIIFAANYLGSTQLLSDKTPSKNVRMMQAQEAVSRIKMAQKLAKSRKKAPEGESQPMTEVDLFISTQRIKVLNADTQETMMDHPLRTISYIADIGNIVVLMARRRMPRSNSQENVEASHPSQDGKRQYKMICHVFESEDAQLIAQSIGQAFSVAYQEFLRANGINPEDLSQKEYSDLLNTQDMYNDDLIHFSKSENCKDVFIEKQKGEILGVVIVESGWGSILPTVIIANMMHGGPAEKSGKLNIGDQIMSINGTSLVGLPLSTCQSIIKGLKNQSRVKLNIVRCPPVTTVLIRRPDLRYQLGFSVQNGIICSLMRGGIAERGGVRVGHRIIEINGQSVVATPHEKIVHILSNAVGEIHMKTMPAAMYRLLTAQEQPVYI

[18] = target: T6, Voltage-gated N-type calcium channel alpha-1B subunit/Amyloid beta A4 precursor protein-binding family A member 1; format: protein assay; remark: listed apart in the source
[19] = target: T5, Dual specificity protein phosphatase 3; assay: VHR1 phosphatase inhibitors, biochemical (AID 1878)
[20] = target: T7, Dual specificity protein phosphatase 6 (Rattus norvegicus, UniProt Q64346); assay: inhibition of rat DUSP6 enzyme activity – biochemical, in vitro, primary screen (AID 425)
T7 sequence (Q64346 whole entry): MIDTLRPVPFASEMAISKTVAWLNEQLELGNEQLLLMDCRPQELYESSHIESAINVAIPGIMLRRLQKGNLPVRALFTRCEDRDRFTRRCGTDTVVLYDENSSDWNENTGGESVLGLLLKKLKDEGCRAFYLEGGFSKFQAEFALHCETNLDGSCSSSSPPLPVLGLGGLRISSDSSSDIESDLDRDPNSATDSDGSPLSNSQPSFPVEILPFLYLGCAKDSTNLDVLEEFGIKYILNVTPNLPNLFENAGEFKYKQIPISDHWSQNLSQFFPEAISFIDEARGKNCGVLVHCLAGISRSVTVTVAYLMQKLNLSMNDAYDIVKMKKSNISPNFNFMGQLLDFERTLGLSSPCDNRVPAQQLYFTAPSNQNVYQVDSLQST

[21] = target: Lysine-specific demethylase 4A (Homo sapiens, UniProt O75164); assay: inhibition of JMJD2A H3K9me3 demethylation – biochemical, DELFIA europium, cherry-picked samples, selectivity assay for GASC-1 inhibitor project, dose response (AID 488840)
[22] = target: T8, Lysine-specific demethylase 4C (Homo sapiens, UniProt Q9H3R0); assay: inhibition of JMJD2C H3K9me3 demethylation – biochemical, DELFIA europium, cherry-picked samples, dose response (AID 488835); format: functional
T8 sequence (Q9H3R0 whole entry): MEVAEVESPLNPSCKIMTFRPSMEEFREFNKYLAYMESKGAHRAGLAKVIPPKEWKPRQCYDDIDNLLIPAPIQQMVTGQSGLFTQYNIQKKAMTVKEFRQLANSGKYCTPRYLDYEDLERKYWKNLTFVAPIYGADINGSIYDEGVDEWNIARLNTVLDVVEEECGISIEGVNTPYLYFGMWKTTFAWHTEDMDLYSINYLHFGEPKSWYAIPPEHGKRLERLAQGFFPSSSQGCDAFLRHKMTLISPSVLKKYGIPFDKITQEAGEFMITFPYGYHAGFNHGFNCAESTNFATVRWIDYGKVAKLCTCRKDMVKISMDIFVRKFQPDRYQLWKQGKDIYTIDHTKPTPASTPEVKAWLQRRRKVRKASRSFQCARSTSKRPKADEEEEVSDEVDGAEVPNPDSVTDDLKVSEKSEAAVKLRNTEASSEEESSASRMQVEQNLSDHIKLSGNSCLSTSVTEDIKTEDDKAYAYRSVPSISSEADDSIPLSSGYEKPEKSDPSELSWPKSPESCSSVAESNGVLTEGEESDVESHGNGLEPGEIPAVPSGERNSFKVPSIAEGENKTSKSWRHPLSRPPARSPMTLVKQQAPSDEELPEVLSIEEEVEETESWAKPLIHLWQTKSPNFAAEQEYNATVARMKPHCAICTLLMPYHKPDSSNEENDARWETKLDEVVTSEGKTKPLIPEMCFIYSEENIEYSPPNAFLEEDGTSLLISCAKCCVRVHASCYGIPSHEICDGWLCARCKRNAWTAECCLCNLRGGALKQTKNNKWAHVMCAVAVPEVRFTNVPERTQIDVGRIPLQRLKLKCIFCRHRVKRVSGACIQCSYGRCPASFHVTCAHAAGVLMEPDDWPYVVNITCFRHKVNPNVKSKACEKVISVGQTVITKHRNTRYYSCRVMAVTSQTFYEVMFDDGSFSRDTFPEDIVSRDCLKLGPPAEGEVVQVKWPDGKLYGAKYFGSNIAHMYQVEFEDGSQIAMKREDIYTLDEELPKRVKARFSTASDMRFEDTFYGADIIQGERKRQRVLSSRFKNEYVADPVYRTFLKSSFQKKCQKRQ

Fatty acid synthase [23] = target: T9, Fatty acid synthase (Homo sapiens, UniProt P49327); assay: inhibition of human FAS-TE enzyme activity – biochemical, endpoint fluorescence intensity, uHTS hits, dose response (AID 624327); format: functional;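 also: fluorescence from hydrolysis of an O-methyl fluorescein acyl ester substrate by the enzyme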
Fatty acid synthase [24] = target: T9, Fatty acid synthase; assay: inhibition of human FAS-TE enzyme activity – biochemical, kinetic fluorescence intensity, dose response (AID 624326); format: functional;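 also: rate of fluorescence rise from hydrolysis of a fluorogenic O-methyl fluorescein ester substrate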
Cytochrome P450 1A2 = target: T10, Cytochrome P450 1A2 (Homo sapiens, UniProt P05177);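 also: PubChem cytochrome P450 panel assay, CYP1A2 panel member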
T10 sequence (P05177 whole entry): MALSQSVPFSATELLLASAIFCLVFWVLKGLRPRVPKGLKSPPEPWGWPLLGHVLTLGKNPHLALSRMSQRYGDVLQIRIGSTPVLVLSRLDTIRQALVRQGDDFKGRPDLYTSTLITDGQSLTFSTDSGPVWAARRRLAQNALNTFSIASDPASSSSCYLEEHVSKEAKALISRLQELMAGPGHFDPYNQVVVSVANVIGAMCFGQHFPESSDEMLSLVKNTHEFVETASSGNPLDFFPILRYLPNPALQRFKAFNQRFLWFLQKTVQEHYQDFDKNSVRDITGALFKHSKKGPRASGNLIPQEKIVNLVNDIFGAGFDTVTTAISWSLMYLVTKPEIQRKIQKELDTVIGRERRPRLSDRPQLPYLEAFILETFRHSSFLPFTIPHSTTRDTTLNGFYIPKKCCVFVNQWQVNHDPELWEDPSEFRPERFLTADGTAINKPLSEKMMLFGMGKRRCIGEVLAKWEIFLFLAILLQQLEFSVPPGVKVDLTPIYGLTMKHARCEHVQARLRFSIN

Cytochrome P450 2C9 = Cytochrome P450 2C9 (Homo sapiens, UniProt P11712)

O=C(c1ccccc1)c1nn(-c2ccccc2)c(=O)cc1C(F)(F)F
AC50 (Cytochrome P450 2D6): inconclusive

CCCN(CCC)Cc1c(C(=O)NN=C/C(C)=C\c2ccccc2)nnn1-c1nonc1N
IC50 (Cannabinoid receptor 2 [1]): > 32 µM (inactive)
EC50 (Cannabinoid receptor 2 [2]): > 32 µM (inactive)
EC50 [3]: 325 nM (active)
IC50 (Cannabinoid receptor 1): > 32 µM (inactive)

CC(Oc1ccc(Br)cc1)C(=O)Nc1nc(-c2ccccn2)cs1 (centres undefined)
IC50 [4]: > 32 µM (inactive)
EC50 (Mu-type opioid receptor): > 32 µM (inactive)
EC50 [5]: 211 nM (active)
EC50 [6]: > 32 µM (inactive)
EC50 [7]: 909 nM (active)
IC50 [8]: 5.42 µM (active)
EC50 [9]: 5.27 µM (active)
EC50 (Beta-galactosidase): > 31.5 µM (inactive)
IC50 [10]: > 32 µM
EC50 (Streptococcus): 2.24 µM (active)
IC50 (Vero [11]): > 25 µM (active)
IC50 (H9c2): > 79 µM (inactive)
CC50 (Vero [12]): 9.95 µM (active)

Nc1nc2ccccc2n1S(=O)(=O)c1ccc(C(F)(F)F)cc1
IC50 [13]: 955 nM (active)
IC50 (Tumor necrosis factor): > 20 µM (inactive)
IC50 (HEK293): > 20 µM (inactive)
IC50 [14]: > 20 µM (inactive)

CCOC(=O)N1C(=O)C2(CCCCC2)N(c2ccc(C)cc2)C1=S
EC50 [15]: > 285 µM (inactive)

CCOC(=O)C1=C(C)N=c2s/c(=C/c3ccc(OCC(=O)O)cc3)c(=O)n2C1c1ccc(SC)cc1 (centres undefined)
IC50 [16]: 9.18 µM (active)
IC50 [17]: 10.4 µM (active)
IC50 [18]: > 50 µM (inactive)
IC50 [19]: 6.94 µM (active)
IC50 [20]: 72.6 µM (active)

O=C(N/N=C/c1cc([N+](=O)[O-])cc([N+](=O)[O-])c1O)C(O)(c1ccccc1)c1ccccc1
AC50 [21]: 3.47 µM (active)
AC50 [22]: 2 µM (active)
IC50 (Fatty acid synthase [23]): 16.1 µM (active)
IC50 (Fatty acid synthase [24]): 8.77 µM (active)

C=C[C@H]1C[N@@]2CC[C@H]1C[C@@H]2[C@@H](O)c1ccnc2ccc(OC)cc12 [QUINIDINE]
AC50 (Cytochrome P450 1A2): inactive
AC50 (Cytochrome P450 2C9): inactive
